Results from the NIST ThermoML archive (doi:10.1021/acs.jced.8b00403).

Assay: refractive index (Na D-line) (dimensionless); wn = mass fraction of the nth substance listed
Settings: 101.33 kPa, Liquid, Standard Abbe refractometry

CC(O)CO (configuration not stated) [1,2-propanediol] + O
refractive index
Settings | 278.15 K | 283.15 K | 288.15 K | 293.15 K | 298.15 K | 303.15 K | 308.15 K | 313.15 K | 318.15 K
w1 = 0.0988 | 1.3458 | 1.3454 | 1.3449 | 1.3444 | 1.3432 | 1.3432 | 1.3424 | 1.3416 | 1.3408
w1 = 0.198 | 1.3578 | 1.3571 | 1.3564 | 1.3557 | 1.355 | 1.3542 | 1.3534 | 1.3534 | 1.3516
w1 = 0.3312 | 1.374 | 1.373 | 1.372 | 1.371 | 1.3699 | 1.3689 | 1.368 | 1.3671 | 1.366
w1 = 0.5005 | 1.3946 | 1.3932 | 1.3918 | 1.3903 | 1.3889 | 1.3874 | 1.3862 | 1.3851 | 1.384
w1 = 0.672 | 1.4112 | 1.4098 | 1.4084 | 1.4069 | 1.4054 | 1.4039 | 1.4024 | 1.4008 | 1.3994
w1 = 0.8044 | 1.4231 | 1.4216 | 1.42 | 1.4184 | 1.4168 | 1.415 | 1.4135 | 1.4119 | 1.4103
w1 = 0.9481 | 1.4343 | 1.4328 | 1.4312 | 1.4296 | 1.428 | 1.4264 | 1.4248 | 1.4231 | 1.4214
w1 = 1 | 1.438 | 1.4364 | 1.4348 | 1.4332 | 1.4315 | 1.4299 | 1.4281 | 1.4264 | 1.4247

OCCCO [propan-1,3-diol] + O
refractive index
Settings | w1 = 0.1113 | w1 = 0.2226 | w1 = 0.334 | w1 = 0.4453 | w1 = 0.501 | w1 = 0.6123 | w1 = 0.7236 | w1 = 0.8349 | w1 = 0.9277 | w1 = 1
278.15 K | 1.3466 | 1.3599 | 1.374 | 1.3866 | 1.3931 | 1.4066 | 1.4181 | 1.4289 | 1.4371 | 1.4436
283.15 K | 1.3462 | 1.3592 | 1.3729 | 1.3856 | 1.3921 | 1.4055 | 1.4169 | 1.4276 | 1.4358 | 1.4423
288.15 K | 1.3457 | 1.3586 | 1.3719 | 1.3845 | 1.391 | 1.4041 | 1.4157 | 1.4263 | 1.4345 | 1.4409
293.15 K | 1.3452 | 1.3579 | 1.371 | 1.3835 | 1.3899 | 1.4029 | 1.4145 | 1.425 | 1.4332 | 1.4395
298.15 K | 1.3446 | 1.3572 | 1.3702 | 1.3825 | 1.3888 | 1.4015 | 1.4133 | 1.4237 | 1.4319 | 1.4381
303.15 K | 1.344 | 1.3564 | 1.3693 | 1.3815 | 1.3876 | 1.4002 | 1.4118 | 1.4224 | 1.4304 | 1.4368
308.15 K | 1.3434 | 1.3558 | 1.3684 | 1.3804 | 1.3865 | 1.3989 | 1.4103 | 1.4211 | 1.4289 | 1.4354
313.15 K | 1.3426 | 1.355 | 1.3676 | 1.3793 | 1.3854 | 1.3977 | 1.4089 | 1.4197 | 1.4275 | 1.434
318.15 K | 1.3418 | 1.3541 | 1.3668 | 1.3782 | 1.3845 | 1.3965 | 1.4075 | 1.4182 | 1.4261 | 1.4325
